The assay deals with glycoalbumin. Description: Relative GA value of diluted pool serum with active ingredient after 2 days at 37° C., assayed by HPLC. Also noted: species or system human. The procedure: Examples will now be described. Blood samples were diluted with diluents containing active ingredients according to the embodiments of the present disclosure, and the GA values thereof were assayed by HPLC on the same day and after two days.
First, a solution containing 10 mM of HEPES and 150 mM of NaCl was prepared. The pH was 8.0. Into this solution, an active ingredient was mixed to prepare a diluent.
In Examples 1 to 4, pool serum was used as the blood samples. The pool serum was prepared by isolating serum from venous blood taken from multiple healthy subjects and then mixing. The resulting product was mixed with the diluent described above. Into 90 μL of the diluent, 10 μL of the blood serum was introduced to prepare a 10-fold dilution (10×) assay sample.
The sample was assayed on the same day (“day 0”) or was stored in a 37° C. constant temperature reservoir for two days (“day 2”) and then assayed.
For the assay conditions, “GA detection by HPLC method” J Chromatogr 597, 271-275 (1992) was referred. Columns used were AEX:Shodex-Asahipak ES-502N (7.5 mm ID ×100 mm) (Showa Denko K.K.) and BAC:TSKgel Boronate-5PW (4.6 mm ID×100 mm) (TOSOH CORPORATION). The eluents used were glycine (JIS special grade), magnesium chloride hexahydrate (JIS special grade), D(−)-sorbitol (Wako 1st grade), ethanol (99.5%, JIS special grade), tris(hydroxymethyl)aminomethane (Tris, Biotechnology grade), and EDTA-2Na. For the analysis, Prominence HPLC system (Shimadzu Corporation) equipped with a system controller was used.
In the graphs indicated in FIGS. 2 to 5, the vertical axis indicates the ratio (relative GA value) of the GA value assayed two days (day 2) after the preparation to the GA value measured on the same day (day 0) as the preparation. When assay was carried out multiple times, the average value is indicated.
Each of the additives was dissolved in the diluent to a predetermined concentration (0.1% to 0.5%) in w/v. For example, specifically, 570 μL of the diluent containing each additive was added to 30 μL of pool serum to prepare a 20× diluted liquid. The GA% of the day 0 sample and that of the day 2 sample left to stand still for 2 days in a 37° C. constant temperature reservoir were assayed by using HPLC.

Where [1] appears, read: 0.1 w/v% active ingredient in diluent.
The mark [2] stands for this setting: 0.2 w/v% active ingredient in diluent.

Four compounds from US20260085293A1, “SOLUTION AND METHOD FOR TRANSPORTING OR STORING BODY FLUID SAMPLE” (PROVIGATE INC., priority 2023, published 2026) can be followed below.

Structures are written as SMILES.

As for `CN[C@@H]1[C@@H](O)[C@@H](O[C@@H]2[C@@H](O)[C@H](O[C@H]3O[C@H]([C@@H](C)O)[C@@H](O)[C@H](O)[C@H]3N)[C@@H](N)C[C@H]2N)OC[C@]1(C)O` [G418, reference compound], the “relative GA value (day 2 / day 0)” value under setting [1] is recorded as “about 98.2” and the “relative GA value (day 2 / day 0)” value under setting [2] was “about 98.2”.

On to `[H]/N=C(/N)N[C@H]1[C@H](O)[C@@H](O)[C@H](O[C@@H]2O[C@@H](C)[C@](O)(C=O)[C@H]2O[C@@H]2O[C@@H](CO)[C@H](O)[C@@H](O)[C@@H]2NC)[C@@H](N/C(N)=N\[H])[C@@H]1O` [STR, streptomycin, reference compound], for which the “relative GA value (day 2 / day 0)” value was “about 100%” under setting [1] and “about 102%” under setting [2].

For the compound `OC[C@H]1O[C@H](O[C@H]2[C@H](O)[C@@H](O)[C@@H](O[C@H]3[C@H](O)[C@@H](O)C(O)O[C@@H]3CO)O[C@@H]2CO)[C@H](O)[C@@H](O)[C@@H]1O` (mixture of isomers) [MT, maltotriose], the “relative GA value (day 2 / day 0)” value under setting [1] is “about 98.2” and the “relative GA value (day 2 / day 0)” value under setting [2] is on record as “about 99.8”. Further, the “relative GA value (day 2 / day 0), in words” value (0.5 w/v% active ingredient in diluent, not illustrated) was “excessively large”.

Turning to `CC(=O)N[C@H]1C(O)O[C@H](CO)[C@@H](O)[C@@H]1O[C@H](C)C(=O)O` (stereo partly drawn) [NAM, N-acetylmuramic acid], the “relative GA value (day 2 / day 0)” value under setting [1] is “about 98.5” and the “relative GA value (day 2 / day 0)” value under setting [2] is listed as “about 99.0”.
